Patent publication US6914045B2, “Glycopeptide antibiotics” (Wyeth Holdings Corporation, priority 2001, dated 2005)
≈ marks a conversion by molar mass, not a printed value. Numbered stars: 1 amine (or outer) side, 2 acyl side, 3 side chain; on linkers, the order of the positions; unused ones are H or OH. Square brackets hold non-standard residues; d marks the D form. Peptide text beside a SMILES is read from it. * marks the point of attachment. ξ: configuration not given here. X1 = N=C1NCC(C(O)C(N[*:1])C(=O)[*:2])N1C1OC(CO)C(O)C(O)C1O; ξEnduracididine(βξ-OH,4'ξ) = N=C1NCC(C(O)C(N)C(=O)O)N1; X2 = OCC1OC(OC2C(CO)OC(*)C(O)C2O)C(O)C(O)C1O; Cha = N[CH](CC1CCCCC1)C(=O)O

Columns and labels:
Enterococcus sp. = assay: in vitro antibacterial evaluation, MIC by broth dilution; assay type: cell-based; details: broth dilution, 18 hours at 35° C.
Procedure, shortened: (§1)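 Broth dilution per NCCLS M7-A2 in Mueller-Hinton II medium, inoculum 5×10^5 CFU/mL, antibiotic range 64-0.06 μg/mL. MIC taken as lowest concentration inhibiting growth; Gram-positive panel includes recent clinical isolates resistant to methicillin, penicillin and/or vancomycin.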

Escherichia coli = assay: as above; assay type: cell-based; details: 18 hours at 35° C.
Procedure, shortened: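 Following National Committee for Clinical Laboratory Standards recommendations (M7-A2), susceptibility was measured by dilution in Muller-Hinton II […]. Bacteria were seeded at 5×10^5 CFU/mL against compound concentrations from 64 down to 0.06 μg/mL.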

Staphylococcus sp. = assay: as above; assay type: cell-based; details: broth dilution, 18 hours at 35° C.
Procedure, shortened: as §1

Streptococcus sp. = assay: as above; assay type: cell-based; details: broth dilution, 18 hours at 35° C.
Procedure, shortened: as §1

[1] = clinical pathology (serum clinical chemistry) in mice; assay type: in vivo; details: CD-1 mice, 20 mg/kg intravenously daily for 9 days, sera day 10
Description: 20-day-old CD-1 mice were divided into a vehicle control group (5 mice) and a treatment group (5 mice). Samples of glycopeptide antibiotics were administered at 20 mg/kg intravenously daily for 9 days.

[2] = anatomic pathology (histopathology of heart and kidney) in mice; assay type: in vivo; details: CD-1 mice, 20 mg/kg intravenously daily for 9 days, necropsy day 10, microscopic histopathology
Description: Samples of tissues from necropsied mice were formalin-fixed, paraffin-embedded, sectioned, stained with hematoxylin and eosin, and examined microscopically. Histopathologic findings were recorded. These findings were subjectively graded on a scale corresponding to slight, mild, moderate, marked and severe as compared to untreated controls.

Structure (SMILES): N=C1NCC(C(O)C2NC(=O)C(Cc3ccc(OC4OC(CO)C(OC5OC(CO)C(O)C(O)C5O)C(O)C4O)cc3)NC(=O)C(CC3CCCCC3)NC(=O)CNC(=O)C(CO)NC(=O)C(C(O)C3CNC(=N)N3C3OC(CO)C(O)C(O)C3O)NC2=O)N1 (stereo not drawn) [Example 263, Cyclo[3-cyclohexylalanyl-O-(4-O-hexopyranosylhexopyranosyl)tyrosyl-3-(2-iminoimidazolidin-4-yl)seryl-3-(3-hexopyranosyl-2-iminoimidazolidin-4-yl)serylserylglycyl]] (cyclo(G[Cha]Y(X2)[ξEnduracididine(βξ-OH,4'ξ)][X1]S); configuration not given here)
- MIC Enterococcus avium (GC 4558) (Enterococcus sp.; Enterococcus avium (GC 4558)): >64 µg/mL
- MIC Enterococcus faecalis (ATCC 29212) (Enterococcus sp.; Enterococcus faecalis (ATCC 29212)): >64 µg/mL
- MIC Enterococcus faecalis (GC 4553) (Enterococcus sp.; Enterococcus faecalis (GC 4553)): >64 µg/mL
- MIC Enterococcus faecalis (GC 4554) (Enterococcus sp.; Enterococcus faecalis (GC 4554)): >64 µg/mL
- MIC Enterococcus faecium (GC 2243) (Enterococcus sp.; Enterococcus faecium (GC 2243)): >64 µg/mL
- MIC Enterococcus faecium (GC 4556) (Enterococcus sp.; Enterococcus faecium (GC 4556)): >64 µg/mL
- MIC Enterococcus faecium (GC 4557) (Enterococcus sp.; Enterococcus faecium (GC 4557)): 32 µg/mL (≈ 24.9 µM)
- MIC Enterococcus faecalis (ATCC 29212) (Enterococcus sp.; strain ATCC 29212): >64 µg/mL
- MIC Enterococcus faecalis (GC 2242) (Enterococcus sp.; strain GC 2242): >64 µg/mL
- MIC Enterococcus faecium (GC 2243) (Enterococcus sp.; strain GC 2243): >64 µg/mL
- MIC Enterococcus faecalis (GC 4552) (Enterococcus sp.; strain GC 4552): >64 µg/mL
- MIC Enterococcus faecalis (GC 4553) (Enterococcus sp.; strain GC 4553): >64 µg/mL
- MIC Enterococcus faecalis (GC 4554) (Enterococcus sp.; strain GC 4554): >64 µg/mL
- MIC Enterococcus faecium (GC 4556) (Enterococcus sp.; strain GC 4556): >64 µg/mL
- MIC Enterococcus faecium (GC 4557) (Enterococcus sp.; strain GC 4557): 32 µg/mL (≈ 24.9 µM)
- MIC Enterococcus avium (GC 4558) (Enterococcus sp.; strain GC 4558): >64 µg/mL
- MIC Escherichia coli (ATCC 25922) (Escherichia coli; Escherichia coli (ATCC 25922)): >64 µg/mL
- MIC Escherichia coli (GC 4559) (Escherichia coli; Escherichia coli (GC 4559)): >64 µg/mL
- MIC Escherichia coli (GC 4560) (Escherichia coli; Escherichia coli (GC 4560)): 16 µg/mL (≈ 12.4 µM)
- MIC Coagulase Negative Staphylococcus (GC 4547) (Staphylococcus sp.): 64 µg/mL (≈ 49.7 µM)
- MIC Coagulase Negative Staphylococcus (GC 4548) (Staphylococcus sp.): 32 µg/mL (≈ 24.9 µM)
- MIC Coagulase Negative Staphylococcus (GC 4549) (Staphylococcus sp.): 16 µg/mL (≈ 12.4 µM)
- MIC Coagulase Negative Staphylococcus (GC 4551) (Staphylococcus sp.): 64 µg/mL (≈ 49.7 µM)
- MIC Staphylococcus aureus (ATCC 29213) (Staphylococcus sp.): 64 µg/mL (≈ 49.7 µM)
- MIC Staphylococcus aureus (GC 1131) (Staphylococcus sp.): 64 µg/mL (≈ 49.7 µM)
- MIC Staphylococcus aureus (GC 4541) (Staphylococcus sp.): 64 µg/mL (≈ 49.7 µM)
- MIC Staphylococcus aureus (GC 4542) (Staphylococcus sp.): 64 µg/mL (≈ 49.7 µM)
- MIC Staphylococcus aureus (GC 4544) (Staphylococcus sp.): >64 µg/mL
- MIC Staphylococcus aureus (GC 4545) (Staphylococcus sp.): 64 µg/mL (≈ 49.7 µM)
- MIC Staphylococcus aureus-SMITH (GC 4543) (Staphylococcus sp.): 32 µg/mL (≈ 24.9 µM)
- MIC Staphylococcus haemolyticus (GC 4546) (Staphylococcus sp.): 32 µg/mL (≈ 24.9 µM)
- MIC Staphylococcus aureus (ATCC 29213) (Staphylococcus sp.; strain ATCC 29213): 64 µg/mL (≈ 49.7 µM)
- MIC Staphylococcus aureus (GC 1131) (Staphylococcus sp.; strain GC 1131): 64 µg/mL (≈ 49.7 µM)
- MIC Staphylococcus aureus (GC 4541) (Staphylococcus sp.; strain GC 4541): 64 µg/mL (≈ 49.7 µM)
- MIC Staphylococcus aureus (GC 4542) (Staphylococcus sp.; strain GC 4542): 64 µg/mL (≈ 49.7 µM)
- MIC Staphylococcus aureus (GC 4544) (Staphylococcus sp.; strain GC 4544): >64 µg/mL
- MIC Staphylococcus aureus (GC 4545) (Staphylococcus sp.; strain GC 4545): 64 µg/mL (≈ 49.7 µM)
- MIC Staphylococcus haemolyticus (GC 4546) (Staphylococcus sp.; strain GC 4546): 32 µg/mL (≈ 24.9 µM)
- MIC Coagulase Negative Staphylococcus (GC 4547) (Staphylococcus sp.; strain GC 4547): 64 µg/mL (≈ 49.7 µM)
- MIC Coagulase Negative Staphylococcus (GC 4548) (Staphylococcus sp.; strain GC 4548): 32 µg/mL (≈ 24.9 µM)
- MIC Coagulase Negative Staphylococcus (GC 4549) (Staphylococcus sp.; strain GC 4549): 16 µg/mL (≈ 12.4 µM)
- MIC Coagulase Negative Staphylococcus (GC 4551) (Staphylococcus sp.; strain GC 4551): 64 µg/mL (≈ 49.7 µM)
- MIC Staphylococcus aureus-SMITH (GC 4543) (Staphylococcus sp.; strain SMITH GC 4543): 32 µg/mL (≈ 24.9 µM)
- MIC Streptococcus agalactiae (GC 4564) (Streptococcus sp.; strain GC 4564): 32 µg/mL (≈ 24.9 µM)
- MIC Streptococcus pyogenes (ID-3187) (Streptococcus sp.; strain ID-3187): 32 µg/mL (≈ 24.9 µM)
- Clinical Chemistry (Day 10) % of Control, Creatinine [1]: +116%
- Anatomical Pathology (Day 10), Heart [2]: +
- Anatomical Pathology (Day 10), Kidney [2]: ++
